Test results taken from patent US10610608B2, “Modular imaging agents containing amino acids and peptides” (Rochester Institute of Technology, priority 2013, dated 2020).

System: live A549 human cancer cells
Assay: Confocal fluorescence microscopy (CFM) of live A549 cells stained with c(RGDyK) peptide conjugates (TMIAs)
Type: cell-based
Conditions: 5 μM conjugate, 2 hours incubation, 37° C., HeNe633 laser
Description: The general protocol for Confocal Microscopy by Chen, et al was followed with the following detailed procedures for cell culture and staining.
Cell Preparation: An A549 culture obtained from the American Type Culture Collection (ATCC) was grown to 50-70% confluency in an In Vitro Scientific 35 mm culture dish with 10 mm Glass bottom well. The culture was incubated in DMEM (Dulbecco's Modified Eagle Medium) with 10% Fetal Bovine Serum (FBS) overnight at 37° C. and 5% CO2. To obtain a suspension cell culture for transfer purpose, the cells were washed with Phosphate Buffered Saline (PBS) and then 0.25% Trypsin-EDTA (1×) (Invitrogen) was added to detach the cells.
Cell Staining: The cells were washed 3× with pre-heated PBS (Phosphate-buffered saline). 5 μM c(RGDyK) peptide conjugates (TMIAs) were added to the 10 mm glass bottom well and incubated at 37° C. and 5% CO2. Cells were then washed 4× with chilled PBS. The samples were viewed immediately under the scanning laser confocal microscope (Leica Microsystems Inc.). Confocal Microscopy Scanning: Leica TCS SP5 II AOBS Filter Free Tunable Spectral Confocal Research Microscope with Resonant Scanner and Hybrid Detectors attached to Leica DMI6000 Fully Automated Microscope was used, with 40× water immersion objective. The 405 Diode and HeNe633 lasers were employed for visualizing suspected auto-fluorescence, c(RGDyK) Cy5.5-TMIA respectively. […]

In the case of “c(RGDyK)-SMCC-DLys(Cy5.5)-Lys(Gd-DOTA)-NH2 [Compound (44)]”, the “CFM image: fluorescence of the TMIA in the cell” value was “illuminated areas a result of fluorescence of the TMIA”.
